Assay results from patent publication US8039014B2, “3′-alkoxyspirocyclopentyl-substituted tetramic and tetronic acids” (Bayer Cropscience AG, priority 2005, dated 2011).

Test system: cereal
Test: Herbicidal post-emergence action with safener: container trials with cereal outdoors ('bird cage'), mefenpyr 1 day prior to herbicide application
Type: in vivo
Conditions: without safener
Experimental: Seeds of monocotyledonous and dicotyledonous weed and crop plants are placed into sandy loam in wood fiber pots or in plastic pots, covered with soil and cultivated in a greenhouse, during the vegetation period also outdoors outside of the greenhouse, under good growth conditions. 2 to 3 weeks after sowing, the test plants are treated at the one- to three-leaf stage. The test compounds, formulated as wettable powders (WP) or liquid (EC), are, in various dosages at a water application rate of 300 l/ha (converted), with wetting agent (0.2 to 0.3%) added, sprayed onto the plants and the surface of the soil. […]
If it is additionally to be tested as to whether safeners can improve the plant compatibility of test substances in the case of crop plants, the following options are used for applying the safener: • seeds of the crop plants are, before sowing, dressed with the safener substance (the amount of safener stated in percent, based on the weight of the seed) • before the application of the test substances, the crop plants are sprayed with the safener at a certain application rate per hectare (usually 1 day before the application of the test substances) • the safener is applied together with the test substance as a tank mix (the amount of safener is stated in g/ha or as a ratio, based on the herbicide). […]

CCc1cc(Cl)cc(OC)c1C1=C(O)C2(CCC(OC)C2)NC1=O (centres unmarked) [Example I-1-a-4]
Summer wheat after 10 d observed (%) (25 g ai/ha): 25%
Summer wheat after 10 d observed (%) (50 g ai/ha): 40%
